Experimental data published in US12636323B2, “Use of Clostridium ghonii combined with tumor angiogenesis inhibitor” (priority 2021, dated 2026).

How the values were obtained:
[1] = Death and net body weight of tumor-bearing mice in Example 3; assay type: in vivo, BALB/c mice; settings: mean ± SD, n=7
Method: Clinical observation: during an administration period, animal behaviors, death or near-death, etc. were observed using the naked eyes once every morning and afternoon.
Body weight: during the administration period, body weight was measured on the day of the tumor measurement from the day of treatment.
(§1) According to a random principle, the conforming mice (a tumor volume of 0.31-0.41 cm^3) were divided into 8 groups by lottery: control group, spore group, high-dose apatinib (AITAN) group, medium-dose apatinib (AITAN) group, low-dose apatinib (AITAN) group, Clostridium ghonii combined low-dose apatinib (AITAN) group, Clostridium ghonii combined medium-dose apatinib (AITAN) group, and Clostridium ghonii combined high-dose apatinib (AITAN) group.
(§2) Control group: the mice were intratumorally administrated with a same volume of a 0.9% sodium chloride injection; • spore group: the mice were intratumorally administrated at a dose of 1×10^7 cfu/tumor/time twice; • High-dose apatinib (AITAN) group: the mice were gavaged at a dose of 180 mg/kg/d once every day for a total of 7 times; • Medium-dose apatinib (AITAN) group: the mice were gavaged at a dose of 120 mg/kg/d once every day for a total of 7 times; • Low-dose apatinib (AITAN) group: the mice were gavaged at a dose of 60 mg/kg/d once every day for a total of 7 times; and
(§3) Clostridium ghonii combined apatinib (AITAN) groups: mice were first intratumorally administrated with apatinib (AITAN) once every day for 3 days and then Clostridium ghonii spores at a dose of 1×10^7 cfu/tumor/time once every other day for a total of two times. The dose of the apatinib (AITAN) in the combined high, medium and low-dose apatinib (AITAN) groups was the same as that in the high, medium and low-dose apatinib (AITAN) groups.

CT26 tumor cells = test: Antitumor effect of Clostridium ghonii spores combined with different doses of apatinib (AITAN) in CT26 mouse model; assay type: in vivo, BALB/c mice; settings: for Tumor inhibition rate (row head: Anti-bacterial rate): calculated from tumor weight; for Tumor weight: n=7; for Cure rate: tumors completely eliminated at end of experiment
Method: BALB/c mice were subcutaneously inoculated with CT26 tumor cells to establish a subcutaneous tumor model for colon cancer. 0.2 mL of a cell suspension with a concentration of 7.5×10^6 cells/mL (acceptable range: 6.75×10^6 cells/mL-8.25×10^6 cells/mL) was extracted with a 1-mL disposable sterile syringe and slowly subcutaneously injected into axillae of right forelimbs of mice (pre-sterilized with 75% alcohol). After injection, needle eyes were gently pressed with dry cotton balls.
Tumor measurement: a maximum long diameter (L) and a maximum transverse diameter (W) of a tumor (including a thickness of a mouse skin) were measured with a vernier caliper, and a tumor volume was calculated according to a formula of
Tumor weight: a tumor tissue was dissected out and weighed and tumor weight was recorded.
Tumor inhibition rate (IRTW%)=(average tumor weight of control group-average tumor weight of experimental group)/average tumor weight of control group×100%.
as §1, §2, §3

[2] = medium-dose apatinib 120 mg/kg/d

SMILES: N#CC1(c2ccc(NC(=O)c3cccnc3NCc3ccncc3)cc2)CCCC1 [apatinib (AITAN), apatinib]
- Net body weight ([1]; high-dose apatinib 180 mg/kg/d): 18.44 ± 1.42 g
- Net body weight ([1]; low-dose apatinib 60 mg/kg/d): 18.32 ± 1.12 g
- Net body weight [1, 2]: 18.02 ± 1.61 g
- Tumor volume (CT26 tumor cells; D-1, Table 2 (low-dose apatinib)): 1049.42 ± 166.37 mm^3
- Tumor volume (CT26 tumor cells; D-1, upper part of Table 2, low-dose apatinib 60 mg/kg/d): 931.50 ± 97.91 mm
- Tumor volume (CT26 tumor cells; D-4, Table 2 (low-dose apatinib)): 1499.45 ± 303.10 mm^3
- Tumor volume (CT26 tumor cells; D-4, upper part of Table 2, low-dose apatinib 60 mg/kg/d): 1489.82 ± 232.84 mm
- Tumor volume (CT26 tumor cells; D-8, Table 2 (low-dose apatinib)): 2442.80 ± 882.95 mm^3
- Tumor volume (CT26 tumor cells; D-8, upper part of Table 2, low-dose apatinib 60 mg/kg/d): 2275.35 ± 348.84 mm
- Tumor inhibition rate (row head: Anti-bacterial rate) (CT26 tumor cells; high-dose apatinib 180 mg/kg/d): 21.68%
- Tumor inhibition rate (row head: Anti-bacterial rate) (CT26 tumor cells; low-dose apatinib 60 mg/kg/d): 20.21%
- Tumor inhibition rate (row head: Anti-bacterial rate) (CT26 tumor cells; [2]): 13.89%
- Tumor weight (CT26 tumor cells; high-dose apatinib 180 mg/kg/d): 3.49 ± 0.86 g
- Tumor weight (CT26 tumor cells; low-dose apatinib 60 mg/kg/d): 3.55 ± 0.61 g
- Tumor weight (CT26 tumor cells; [2]): 3.84 ± 0.69 g
- Cure rate (CT26 tumor cells; high-dose apatinib 180 mg/kg/d): 0%
- Cure rate (CT26 tumor cells; low-dose apatinib 60 mg/kg/d): 0%
- Cure rate (CT26 tumor cells; [2]): 0%
